Test results reported in paper PMC6321145 (Molecules, 2018).

Tests used:
Aβ1–42 [1] = molecular target: T1, Aβ1–42 (Homo sapiens, UniProt P05067); test: Inhibition of Cu^2+-induced Aβ1–42 aggregation (ThT-binding assay); type: biochemical; settings: [Aβ] = 20 μM, [Cu^2+] = 20 μM, [compound] = 40 μM; 37 °C, 24 h
T1 construct: Aβ1–42 (Sigma, St. Louis, MO, USA; counterion, NaOH) stock solution was prepared by dissolving Aβ1–42 peptide in ammonium hydroxide; purchased Sigma
Description: To investigate the ability of compound 6b1 to inhibit Cu^2+-induced Aβ1–42 aggregation, the ThT-binding assay was performed.
Aβ was diluted in […] (pH 6.6) with […]. The mixture of the peptide (10 μL, 20 μM, final concentration) with or without copper (10 μL, 20 μM, final concentration) and the test compound (10 μL, 40 μM, final concentration) was incubated at 37 °C for 24 h. The 30 μL of the sample was diluted to a final volume of 200 μL with 50 mM glycine-NaOH buffer (pH 8.0) containing thioflavin T (5 μM). The detection method was the same as that of self-induced Aβ aggregation experiment.

[2] = Oxygen radical absorbance capacity with fluorescein (ORAC-FL) assay
Description: Oxidative stress is another crucial event in AD pathogenesis. In order to determine antioxidant activities of our synthetic compounds, the oxygen radical absorbance capacity method with fluorescein (ORAC-FL) assay was performed. with Trolox (6-hydroxy-2,5,7,8-tetramethylchroman-2-carboxylic acid) as the standard, and their antioxidant activity was expressed as Trolox equivalents.
The antioxidant activities of the compounds in vitro were determined by the oxygen radical absorbance capacity fluorescein (ORAC-FL) assay. The tested compounds and (±)-6-hydroxy-2,5,7,8-tetramethylchroman-2-carboxylic acid (Trolox) were dissolved in DMSO at a concentration of 10 mM, and then diluted with 75 mM potassium phosphate buffer (pH 7.4) to 50 μM and 10 μM for use. The fluorescein (FL) stock solution (3.4 mM) was diluted with the same buffer to 136 nM. All the assays were conducted with 75 mM potassium phosphate bufffer (pH 7.4), and the final reaction mixture was 200 μL.
The mixture of compounds (or buffer) (20 μL) and fluorescein (FL, 120 μL) were incubated for 15 min at 37 °C in a black 96-well plate. Then 2,2′-azobis-(amidino-propane)-dihydrochloride (AAPH) solution (60 μL, 40 mM) was rapidly added to the reaction mixture. The fluorescence was recorded every 5 min for 240 min at 485 nm (excitation wavelength) and 535 nm (emission wavelength) (Varioskan Flash Multimode Reader, Thermo Scientific, Waltham, MA, USA), and each sample was prepared and measured for three times independently. […] The net AUC for a sample was calculated using the expression net AUC = AUCsample − AUCblank, The ORAC-FL value of each sample was calculated using the equation of net AUCsample/(AUCTrolox – AUCblank), which was expressed as Trolox equivalents.

[3] = Cytotoxicity on SH-SY5Y cells (MTT); type: cell-based, human; settings: human, SH-SY5Y neuroblastoma cells; MTT, 24 h; mean ± SEM of three measurements
Description: The cytotoxicity of our synthesized compounds was examined in human neuroblastoma SH-SY5Y cells. The cell viability was determined by using methyl thiazolyl tetrazolium (MTT) colorimetry, the cells were treated with different concentrations of compounds (0–100 μM). The result is shown in the Supplementary Materials (Table S1).
The cytotoxicities of the compounds were evaluated using the MTT assay. SH-SY5Y cells were subcultured in 96-well plates at a seeding density of 1 × 10^4 cells per well. After 24 h, the medium was removed and treated with different concentrations of tested compounds for 24 h at 37 °C. The survival of cells was determined with MTT assay. Then 80 μL of medium and 20 μL of MTT (0.5 mg/mL, final concentration) were added to each well and incubated for another 4 h. After the removal of MTT, the formazan crystals were dissolved in DMSO. The amount of formazan was measured using a microculture plate reader at the wavelength of 570 nm. Each concentration was performed in triplicate.

SH-SY5Y cells = test: Cellular ROS detection (DCFH-DA) in SH-SY5Y cells treated with t-BuOOH; type: cell-based, human; settings: compound 2.5 μM; 0.1 mM t-BuOOH; compared with Trolox
Description: To further investigate their antioxidant activity in SH-SY5Y cells, cellular ROS detection assay based on dichlorofluorescein diacetate (DCFH-DA) was performed. with Trolox and N-acetyl-L-cysteine (NAC) as reference compounds.
SH-SY5Y cells were maintained in Dulbecco’s modified Eagle’s medium (DEME) and supplemented with 1 mM glutamine, 10% fetal calf serum, 100 U/mL penicillin, and 100 μg/mL streptomycin. The cultures were maintained at 37 °C in a humidified incubator containing 5% CO2 and were passaged twice weekly.
The antioxidant activity of the compounds in SH-SY5Y cells were tested with the fluorescent probe (2′,7′-dichlorofluorescein diacetate, DCFH-DA) as reported with some variation. SH-SY5Y cells were sub-cultured in 96-well plates at a seeding density of 1 × 10^4 cells per well for 24 h, then the medium was removed, the tested compounds (2.5 μM) was added and incubated for another 24 h at 37 °C. After that, the cells were washed with PBS and incubated with 5 μM DCFH-DA in PBS at 37 °C in 5% CO2 for 30 min. Then DCFH-DA was removed, the cells were washed three times and incubated with 0.1 mM t-BuOOH in PBS for 30 min. After the incubation, the cell fluorescence from each well was measured at 485 nm excitation and 535 nm emission with a monochromator based multimode microplate reader ([…] M1000).

Aβ1–42 [4] = molecular target: T1, Aβ1–42; test: Inhibition of self-induced Aβ1–42 aggregation (ThT fluorescence assay); type: biochemical; settings: for inhibition at 20 µM: inhibitor 20 μM, Aβ1–42 50 μM, ThT, 37 °C, 72 h, mean ± SD
Description: The formation and aggregation of Aβ1–42 in the brain leads to neurotoxicity in AD. In order to evaluate the activity of our new synthetic compounds to inhibit Aβ1–42 self-induced aggregation, the thioflavin (ThT) fluorescence assay was performed.
All ThT experiments were performed according to our previously published methods. Aβ1–42 (Sigma, St. Louis, MO, USA; counterion, NaOH) stock solution was prepared by dissolving Aβ1–42 peptide in ammonium hydroxide (1% v/v), and diluting with 20 mM phosphate buffer (pH 7.4) to 100 μM. The tested compounds were firstly dissolved in DMSO at a concentration of 10 mM, and then diluted with 20 mM phosphate buffer (pH 7.4) to 40 μM.
For the inhibition of self-induced Aβ1–42 aggregation. Aβ1–42 peptide (2 μL, 50 μM, final concentration) with the tested compound (2 μL, 20 μM, final concentration) or 20 mM phosphate buffer (2 μL) was incubated in 20 mM phosphate buffer (pH 7.4) at 37 °C for 72 h. After incubation, the samples were diluted to a final volume of 36 μL with 50 mM glycine-NaOH buffer (pH 8.5) containing 5 μM Thioflavin T. Fluorescence signal was measured (excitation wavelength 450 nm, emission wavelength 485 nm, and slit widths set to 5 nm) on a monochromator-based multimode microplate reader ([…] M1000, TECAN, Hombrechtikon, Switzerland), adapted for 384-well microtiter plates. […] Each compound was examined in triplicate.

Aβ1–42 fibrils = molecular target: T2, Aβ1–42 fibrils (Homo sapiens, UniProt P05067); test: TEM assay of Aβ1–42 fibrils; type: biochemical; settings: compound 20 μM; 37 °C, 24 h
T2 construct: Aβ1–42 (Sigma, St. Louis, MO, USA; counterion, NaOH) stock solution was prepared by dissolving Aβ1–42 peptide in ammonium hydroxide; purchased Sigma
T2 sequence (P05067 672-713): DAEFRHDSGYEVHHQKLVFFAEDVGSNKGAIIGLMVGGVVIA
Description: To further complement the ThT binding assay, A transmission electron microscopy (TEM) assay was employed to monitor and clarify the effect of compound 6b1 on Aβ1−42 aggregation.
The ability of compound 6b1 to disaggregate self-induced Aβ1–42 aggregation fibrils was also investigated. Aβ1–42 fibrils were prepared by incubating fresh Aβ1–42 for 24 h at 37 °C, and the test compound was added to the sample and incubated for another 24 h at 37 °C. Then the sample was analyzed by ThT binding assay and TEM assay.
Aβ1–42 peptide (Sigma) was dissolved in 20 mM phosphate buffer (pH 7.4) at 4 °C to 100 μM before use.
Aβ1–42 was incubated at 37 °C for 24 h. Then, 40 μM tested compound was added and incubated at 37 °C for another 24 h. The final concentrations of Aβ1–42 and the compounds were 50 μM and 20 μM, respectively. After incubation, aliquots (5 μL) of the samples were placed on a carbon-coated copper/rhodium grid for 2 min at room temperature. Each grid was stained with uranyl acetate (1%, 5 μL) for 2 min. Excess staining solution was removed and the specimen was transferred for imaging with transmission electron microscopy (JEOL JEM-1400, Tokyo, Japan).

T1 sequence (P05067 672-713): as above

Compound	Inhibition of Cu^2+-induced Aβ aggregation (Aβ1–42 [1])	ORAC ([2]; compound 1 μM)	ORAC ([2]; compound 5 μM)	IC50 at 24 h [3]	melting point	Antioxidant activity in SH-SY5Y cells (ROS generation, DCFH-DA fluorescence) (SH-SY5Y cells)	inhibition at 20 µM (Aβ1–42 [4])	IC50 (Aβ1–42 [4]; ThT fluorescence method, mean ± SD of three experiments, read-out: IC50 against self-induced Aβ1–42 aggregation)	TEM: Aβ1–42 fibril formation in presence of compound (Aβ1–42 fibrils)
Oc1c(I)cc(Cl)c2cccnc12 [CQ, clioquinol]	83.6%								
CCN(CC)CCCNc1cc(/C=C/c2ccc(N3CCOCC3)cc2)nc2ccccc12 [Compound 6a4, (E)-N^1,N^1-Diethyl-N^3-(2-(4-morpholinostyryl)quinolin-4-yl)propane-1,3-diamine]		4.16 ± 0.04 μmol of Trolox equivalents/μmol of tested compounds	4.52 ± 0.03 μmol of Trolox equivalents/μmol of tested compounds	145.2 ± 0.9 µM	172.5 to 174.3 °C	a little weaker antioxidant activity than Trolox	87.9 ± 1.1%		
CCN(CC)CCCNc1cc(/C=C/c2ccc(N(CC)CC)cc2)nc2ccccc12 [Compound 6a1, (E)-N^1-(2-(4-(Diethylamino)styryl)quinolin-4-yl)-N^3,N^3-diethylpropane-1,3-diamine]		5.92 ± 0.03 μmol of Trolox equivalents/μmol of tested compounds		189 µM	182.3 to 184 °C	more antioxidant activity than Trolox	90.2 ± 1.3%	7.8 ± 0.4 µM	
Oc1ccc(/C=C/c2cc(O)cc(O)c2)cc1 [Res, resveratrol, reference compound]	71.2%						77.2 ± 1.1%		a few thick fibrils
